Measurements published in patent US9593149B2, “Amylin and calcitonin receptor agonist” (Novo Nordisk A/S, priority 2014, dated 2017).
≈ marks a conversion by molar mass, not a printed value. Numbered stars: 1 amine (or outer) side, 2 acyl side, 3 side chain; on linkers, the order of the positions; unused ones are H or OH. Peptide text beside a SMILES is read from it. * marks the point of attachment. C20 diacid = O=C(O)CCCCCCCCCCCCCCCCCCC(=O)*; C18 diacid = O=C(O)CCCCCCCCCCCCCCCCC(=O)*; γGlu = O=C(O)[C@H](CCC(=O)[*:2])N[*:1]

Experiment: Assay (IV) determination of solubility
Assay type: physicochemical
Protocol: Assay (IV)—Determination of Solubility
The mimylin peptide was dissolved in water at ˜500 nmol/ml and mixed 1:1 with a series of buffers (100 mM glycylglycine pH 3.0, 100 mM glycylglycine pH 4.0, 100 mM glycylglycine pH 5.0, 100 mM bistrispropane pH 6.0, 100 mM bistrispropane pH 6.5, 100 mM bistrispropane pH 7.0, 100 mM bistrispropane pH 7.5, 100 mM bistrispropane pH 8.0).

Solubility (pH 3.0) | Solubility (pH 4.0) | solubility at 18 h (pH 5.0) | Solubility (pH 6.0) | Solubility (pH 6.5) | Solubility (pH 7.0) | Solubility (pH 7.5) | Solubility (pH 8.0) | Solubility (pH 5.0) | solubility at 18 h (pH 4.0) | solubility at 18 h (pH 6.0) | solubility at 18 h (pH 6.5) | solubility at 18 h (pH 7.0) | solubility at 18 h (pH 7.5) | solubility at 18 h (pH 8.0) | solubility at 18 h (pH 3.0) | Structure (SMILES)
≧200 μM | ≧200 μM | 119 µM (≈ 448 µg/mL) | ≧200 μM | ≧200 μM | ≧200 μM | ≧200 μM | ≧200 μM |  |  |  |  |  |  |  |  | CC(C)C[C@H](NC(=O)CNC(=O)[C@H](CO)NC(=O)[C@H](C)NC(=O)CC[C@H](NC(=O)CCCCCCCCCCCCCCCCCCC(=O)O)C(=O)O)C(=O)N[C@@H](CO)C(=O)N[C@H](C(=O)N[C@@H](C)C(=O)N[C@H](C(=O)N[C@@H](CC(C)C)C(=O)NCC(=O)N[C@@H](CCCNC(=N)N)C(=O)N[C@@H](CC(C)C)C(=O)N[C@@H](CO)C(=O)N[C@@H](C)C(=O)N[C@@H](CCC(=O)O)C(=O)N[C@@H](CC(C)C)C(=O)N[C@@H](Cc1cnc[nH]1)C(=O)N[C@@H](CCC(=O)O)C(=O)N[C@@H](CC(C)C)C(=O)N[C@@H](C)C(=O)N[C@H](C(=O)N[C@@H](Cc1ccc(O)cc1)C(=O)N1CCC[C@H]1C(=O)N[C@@H](CCCNC(=N)N)C(=O)N[C@H](C(=O)N[C@@H](CCC(=O)O)C(=O)N[C@H](C(=O)NCC(=O)N[C@@H](CO)C(=O)NCC(=O)N[C@H](C(=O)N[C@@H](Cc1ccc(O)cc1)C(N)=O)[C@@H](C)O)[C@@H](C)O)[C@@H](C)O)[C@@H](C)O)C(C)C)[C@@H](C)O [compound 104, [N-terminal(C20 diacid-gGlu), des1, 4G, 9V, 23Y, 30S, 31G, 32T, 33Y]mimylin] ({C20 diacid-γGlu}-ASGLSTAVLGRLSAELHELATYPRTETGSGTY-NH2)
≧200 μM | ≧200 μM |  | ≧200 μM | ≧200 μM | ≧200 μM | ≧200 μM | ≧200 μM | ≧200 μM |  |  |  |  |  |  |  | CC(C)C[C@H](NC(=O)[C@H](CCC(=O)O)NC(=O)[C@H](Cc1cnc[nH]1)NC(=O)[C@H](CC(C)C)NC(=O)[C@H](CCC(=O)O)NC(=O)[C@H](C)NC(=O)[C@H](CO)NC(=O)[C@H](CC(C)C)NC(=O)[C@H](CCCNC(=N)N)NC(=O)CNC(=O)[C@H](CC(C)C)NC(=O)[C@@H](NC(=O)[C@H](C)NC(=O)[C@@H](NC(=O)[C@H](CO)NC(=O)[C@H](CC(C)C)NC(=O)[C@H](CCC(=O)O)NC(=O)[C@H](CO)NC(=O)[C@H](C)NC(=O)[C@H](CCC(=O)O)NC(=O)CCCCCCCCCCCCCCCCC(=O)O)[C@@H](C)O)C(C)C)C(=O)N[C@@H](C)C(=O)N[C@H](C(=O)N[C@@H](CC(C)C)C(=O)N1CCC[C@H]1C(=O)N[C@@H](CCCNC(=N)N)C(=O)N[C@H](C(=O)N[C@@H](CCC(=O)O)C(=O)N1CCC[C@H]1C(=O)NCC(=O)N1CCC[C@H]1C(=O)N[C@@H](CCC(=O)O)C(=O)N[C@@H](CO)C(=O)N1CCC[C@H]1C(N)=O)[C@@H](C)O)[C@@H](C)O [compound 32, [N-terminal(C18 diacid), 9V, 28P]mimylin] ({C18 diacid}-EASELSTAVLGRLSAELHELATLPRTEPGPESP-NH2)
≧200 μM |  | 29 µM (≈ 110 µg/mL) | ≧200 μM | ≧200 μM | ≧200 μM | ≧200 μM | ≧200 μM |  | 7 µM (≈ 26.7 µg/mL) |  |  |  |  |  |  | CC(C)C[C@H](NC(=O)[C@H](CO)NC(=O)[C@H](C)NC(=O)[C@@H](NC(=O)[C@H](CO)NC(=O)[C@H](CC(C)C)NC(=O)[C@H](CCC(=O)O)NC(=O)[C@H](CO)NC(=O)[C@H](C)NC(=O)CC[C@H](NC(=O)CCCCCCCCCCCCCCCCCCC(=O)O)C(=O)O)[C@@H](C)O)C(=O)NCC(=O)N[C@@H](CCCNC(=N)N)C(=O)N[C@@H](CC(C)C)C(=O)N[C@@H](CO)C(=O)N[C@@H](C)C(=O)N[C@@H](CCC(=O)O)C(=O)N[C@@H](CC(C)C)C(=O)N[C@@H](Cc1cnc[nH]1)C(=O)N[C@@H](CCC(=O)O)C(=O)N[C@@H](CC(C)C)C(=O)N[C@@H](C)C(=O)N[C@H](C(=O)N[C@@H](Cc1ccc(O)cc1)C(=O)N1CCC[C@H]1C(=O)N[C@@H](CCCNC(=N)N)C(=O)N[C@H](C(=O)N[C@@H](CCC(=O)O)C(=O)N[C@H](C(=O)NCC(=O)N[C@@H](CO)C(=O)NCC(=O)N[C@@H](CO)C(=O)N[C@@H](Cc1ccc(O)cc1)C(N)=O)[C@@H](C)O)[C@@H](C)O)[C@@H](C)O [compound 91, [N-terminal(C20 diacid-gGlu), des1, 9S, 23Y, 30S, 31G, 33Y]mimylin] ({C20 diacid-γGlu}-ASELSTASLGRLSAELHELATYPRTETGSGSY-NH2)
≧200 μM | ≧200 μM | 1 µM (≈ 4.02 µg/mL) |  |  |  |  |  |  |  | 1 µM (≈ 4.02 µg/mL) | 1 µM (≈ 4.02 µg/mL) | 1 µM (≈ 4.02 µg/mL) | 52 µM (≈ 209 µg/mL) | 185 µM (≈ 743 µg/mL) |  | CC(C)C[C@H](NC(=O)CNC(=O)[C@H](CO)NC(=O)[C@H](CC(C)C)NC(=O)[C@H](CCC(=O)O)NC(=O)CC[C@H](NC(=O)CCCCCCCCCCCCCCCCCCC(=O)O)C(=O)O)C(=O)N[C@@H](CO)C(=O)N[C@H](C(=O)N[C@@H](CC(C)C)C(=O)N[C@H](C(=O)N[C@@H](CC(C)C)C(=O)NCC(=O)N[C@@H](CCCNC(=N)N)C(=O)N[C@@H](CC(C)C)C(=O)N[C@@H](CO)C(=O)N[C@@H](CCC(N)=O)C(=O)N[C@@H](CCC(=O)O)C(=O)N[C@@H](CC(C)C)C(=O)N[C@@H](Cc1cnc[nH]1)C(=O)N[C@@H](CCC(=O)O)C(=O)N[C@@H](CC(C)C)C(=O)N[C@@H](CCC(N)=O)C(=O)N[C@H](C(=O)N[C@@H](Cc1ccc(O)cc1)C(=O)N1CCC[C@H]1C(=O)N[C@@H](CCCNC(=N)N)C(=O)N[C@H](C(=O)NCC(=O)N[C@H](C(=O)NCC(=O)N[C@@H](CO)C(=O)NCC(=O)N[C@H](C(=O)N[C@@H](Cc1ccc(O)cc1)C(N)=O)[C@@H](C)O)[C@@H](C)O)[C@@H](C)O)[C@@H](C)O)C(C)C)[C@@H](C)O [compound 129, [N-terminal(C20 diacid-gGlu), 2L, 4G, 8L, 9V, 15Q, 21Q, 23Y, 27G, 30S, 31G, 32T, 33Y]mimylin] ({C20 diacid-γGlu}-ELSGLSTLVLGRLSQELHELQTYPRTGTGSGTY-NH2)
≧200 μM |  |  |  | ≧200 μM | ≧200 μM | ≧200 μM | ≧200 μM |  |  | 161 µM (≈ 642 µg/mL) |  |  |  |  |  | CC(C)C[C@H](NC(=O)CNC(=O)[C@H](CO)NC(=O)[C@H](C)NC(=O)CC[C@H](NC(=O)CCCCCCCCCCCCCCCCCCC(=O)O)C(=O)O)C(=O)N[C@@H](CO)C(=O)N[C@H](C(=O)N[C@@H](CC(C)C)C(=O)N[C@H](C(=O)N[C@@H](CC(C)C)C(=O)NCC(=O)N[C@@H](CCCNC(=N)N)C(=O)N[C@@H](CC(C)C)C(=O)N[C@@H](CO)C(=O)N[C@@H](CCC(N)=O)C(=O)N[C@@H](CCC(=O)O)C(=O)N[C@@H](CC(C)C)C(=O)N[C@@H](Cc1cnc[nH]1)C(=O)N[C@@H](CCC(=O)O)C(=O)N[C@@H](CC(C)C)C(=O)N[C@@H](CCC(N)=O)C(=O)N[C@H](C(=O)N[C@@H](Cc1ccc(O)cc1)C(=O)N1CCC[C@H]1C(=O)N[C@@H](CCCNC(=N)N)C(=O)N[C@H](C(=O)N[C@@H](CCC(=O)O)C(=O)N[C@H](C(=O)NCC(=O)N[C@@H](CO)C(=O)N[C@@H](CCC(N)=O)C(=O)N[C@H](C(=O)N[C@@H](Cc1ccc(O)cc1)C(N)=O)[C@@H](C)O)[C@@H](C)O)[C@@H](C)O)[C@@H](C)O)C(C)C)[C@@H](C)O [compound 126, [N-terminal(C20 diacid-gGlu), des1, 4G, 8L, 9V, 15Q, 21Q, 23Y, 30S, 31Q, 32T, 33Y]mimylin] ({C20 diacid-γGlu}-ASGLSTLVLGRLSQELHELQTYPRTETGSQTY-NH2)
 |  | 10 µM (≈ 37.3 µg/mL) | ≧200 μM | ≧200 μM | ≧200 μM | ≧200 μM | ≧200 μM |  | 9 µM (≈ 33.6 µg/mL) |  |  |  |  |  | 117 µM (≈ 436 µg/mL) | CC(C)C[C@H](NC(=O)[C@H](CCCNC(=N)N)NC(=O)CNC(=O)[C@H](CC(C)C)NC(=O)[C@@H](NC(=O)[C@H](C)NC(=O)[C@@H](NC(=O)[C@H](CO)NC(=O)[C@@H](NC(=O)[C@H](CCC(=O)O)NC(=O)[C@H](CO)NC(=O)[C@H](C)NC(=O)[C@H](CCC(=O)O)NC(=O)CCCCCCCCCCCCCCCCC(=O)O)C(C)C)[C@@H](C)O)C(C)C)C(=O)N[C@@H](CO)C(=O)N[C@@H](C)C(=O)N[C@@H](CCC(=O)O)C(=O)N[C@@H](CC(C)C)C(=O)N[C@@H](Cc1cnc[nH]1)C(=O)N[C@@H](CCC(=O)O)C(=O)N[C@H](C(=O)N[C@@H](C)C(=O)N[C@H](C(=O)N[C@@H](CC(C)C)C(=O)N1CCC[C@H]1C(=O)N[C@@H](CCCNC(=N)N)C(=O)N[C@H](C(=O)N[C@@H](CCC(=O)O)C(=O)N[C@H](C(=O)NCC(=O)N1CCC[C@H]1C(=O)N[C@@H](CCC(=O)O)C(=O)N[C@@H](CO)C(=O)N1CCC[C@H]1C(N)=O)[C@@H](C)O)[C@@H](C)O)[C@@H](C)O)C(C)C [compound 36, [N-terminal(C18 diacid), 5V, 9V, 20V]mimylin] ({C18 diacid}-EASEVSTAVLGRLSAELHEVATLPRTETGPESP-NH2)
